Test results as given in patent US20250025443A1, “COMPOUNDS AND METHODS FOR TREATING CORONA VIRUSES” (CLEAR CREEK BIO, INC., priority 2021, published 2025).
Like-named read-outs stand apart in the source and are kept apart here.

Molecular target: SARS-CoV-2 Papain-Like Protease (PLpro) (Severe acute respiratory syndrome coronavirus 2 (2019-nCoV) (SARS-CoV-2), UniProt P0DTD1)
Assay: biochemical
Settings: read-out: PLpro IC50
[1] = SARS-CoV-2 PLpro enzymatic fluorescence assay
[2] = PLpro enzymatic fluorescence assay, class symbols

COc1cc(C2(NC(=O)c3cc(OC[C@@H]4CCN4C)ccc3C)CC2)c2cccnc2c1 [Compound 527, (S)-N-(1-(7-Methoxyquinolin-5-yl)cyclopropyl)-2-methyl-5-((1-methylazetidin-2-yl)methoxy)benzamide]
IC50 [1]: < 100 nM

COc1cc(C2(NC(=O)c3cc(OC[C@@H]4CCCN4C)ccc3C)CC2)c2cccnc2c1 [Compound 528, (S)-N-(1-(7-Methoxyquinolin-5-yl)cyclopropyl)-2-methyl-5-((1-methylpyrrolidin-2-yl)methoxy)benzamide]
IC50 [1]: < 100 nM

Cc1ccc(OCC2CCN2C)cc1C(=O)NC1(c2cccc3nc(F)ccc23)CC1 (stereo not shown) [Compound 529, N-(1-(2-Fluoroquinolin-5-yl)cyclopropyl)-2-methyl-5-((1-methylazetidin-2-yl)methoxy)benzamide]
IC50 [1]: < 100 nM

COc1cc(C2(NC(=O)c3cc(OC[C@H](C)N)ccc3C)CC2)c2cccnc2c1 [Compound 530, (S)-5-(2-Aminopropoxy)-N-(1-(7-methoxyquinolin-5-yl)cyclopropyl)-2-methylbenzamide]
IC50 [1]: < 100 nM

COc1cc(C2(NC(=O)c3cc(OC[C@H]4C[C@H](F)CN4C)ccc3C)CC2)c2ccccc2c1 [Compound 531, 5-(((2R,4S)-4-Fluoro-1-methylpyrrolidin-2-yl)methoxy)-N-(1-(3-methoxynaphthalen-1-yl)cyclopropyl)-2-methylbenzamide]
IC50 [2]: < 100 nM

COc1cc(C2(NC(=O)c3cc(OC[C@@H]4C[C@@H](F)CN4C)ccc3C)CC2)c2cccnc2c1 [Compound 532, 5-(((2S,4R)-4-Fluoro-1-methylpyrrolidin-2-yl)methoxy)-N-(1-(7-methoxyquinolin-5-yl)cyclopropyl)-2-methylbenzamide]
IC50 [2]: < 100 nM

Cc1ccc(OC2CNC(C)(C)C2)cc1C(=O)NC1(c2cccc3ccccc23)CC1 (stereo not shown) [Compound 533, 5-((5,5-Dimethylpyrrolidin-3-yl)oxy)-2-methyl-N-(1-(naphthalen-1-yl)cyclopropyl)benzamide]
IC50 [1]: < 100 nM

Cc1ccc(OCC2CC(C)(C)N2)cc1C(=O)NC1(c2cccc3ccccc23)CC1 (stereo not shown) [Compound 534, 5-((4,4-Dimethylazetidin-2-yl)methoxy)-2-methyl-N-(1-(naphthalen-1-yl)cyclopropyl)benzamide]
IC50 [1]: < 100 nM

COc1cc(C2(NC(=O)c3cc(OC[C@@H](C)N)ccc3C)CC2)c2cccnc2c1 [Compound 535, (R)-5-(2-Aminopropoxy)-N-(1-(7-methoxyquinolin-5-yl)cyclopropyl)-2-methylbenzamide]
IC50 [2]: < 100 nM

COc1cc(C2(NC(=O)c3cc(OC[C@H](C)N)ccc3C)CC2)c2ccncc2c1 [Compound 536, (S)-5-(2-Aminopropoxy)-N-(1-(7-methoxyisoquinolin-5-yl)cyclopropyl)-2-methylbenzamide]
IC50 [2]: < 100 nM

COc1cc(C2(NC(=O)c3cc(OC[C@@H](C)N)ccc3C)CC2)c2ccncc2c1 [Compound 537, (R)-5-(2-Aminopropoxy)-N-(1-(7-methoxyisoquinolin-5-yl)cyclopropyl)-2-methylbenzamide]
IC50 [2]: < 100 nM

COc1cc(C2(NC(=O)c3cc(CC[C@@H]4CCC4C)ccc3C)CC2)c2ccncc2c1 (stereo partly shown) [Compound 538]
IC50 [1]: < 100 nM

Cc1ccc(OC[C@H](C)N)cc1C(=O)NC1(c2cc(-c3cccs3)cc3ccccc23)CC1 [Compound 539, (S)-5-(2-Aminopropoxy)-2-methyl-N-(1-(3-(thiophen-2-yl)naphthalen-1-yl)cyclopropyl)benzamide]
IC50 [1]: < 100 nM

Cc1ccc(OC[C@@H](C)N)cc1C(=O)NC1(c2cc(Br)cc3ccccc23)CC1 [Compound 540, (R)-5-(2-Aminopropoxy)-N-(1-(3-bromonaphthalen-1-yl)cyclopropyl)-2-methylbenzamide]
IC50 [2]: < 100 nM

Cc1ccc(OC[C@H](C)N)cc1C(=O)NC1(c2cc(Br)cc3ccccc23)CC1 [Compound 541, (S)-5-(2-Aminopropoxy)-N-(1-(3-bromonaphthalen-1-yl)cyclopropyl)-2-methylbenzamide]
IC50 [1]: < 100 nM

Cc1ccc(OC[C@@H]2CCN2C)cc1C(=O)NC1(c2cc(O)nc3cc(F)ccc23)CC1 [Compound 542, (S)-N-(1-(7-Fluoro-2-hydroxyquinolin-4-yl)cyclopropyl)-2-methyl-5-((1-methylazetidin-2-yl)methoxy)benzamide]
IC50 [1]: < 100 nM

Cc1ccc(OC[C@@H](C)N)cc1C(=O)NC1(c2cc(-c3cccs3)cc3ccccc23)CC1 [Compound 543, (R)-5-(2-Aminopropoxy)-2-methyl-N-(1-(3-(thiophen-2-yl)naphthalen-1-yl)cyclopropyl)benzamide]
IC50 [2]: < 100 nM

COc1ccc2c(C3(NC(=O)c4cc(OC[C@@H]5CCN5C)ccc4C)CC3)cccc2n1 [Compound 544, (S)-N-(1-(2-Methoxyquinolin-5-yl)cyclopropyl)-2-methyl-5-((1-methylazetidin-2-yl)methoxy)benzamide]
IC50 [1]: < 100 nM

Cc1ccc(OC[C@@H]2CCN2C)cc1C(=O)NC1(c2cccc3nc(O)ccc23)CC1 [Compound 545, (S)-N-(1-(2-Hydroxyquinolin-5-yl)cyclopropyl)-2-methyl-5-((1-methylazetidin-2-yl)methoxy)benzamide]
IC50 [1]: < 100 nM

Cc1ccc2c(C3(NC(=O)c4cc(OC[C@@H]5CCN5C)ccc4C)CC3)cccc2n1 [Compound 547, (S)-2-Methyl-5-((1-methylazetidin-2-yl)methoxy)-N-(1-(2-methylquinolin-5-yl)cyclopropyl)benzamide]
IC50 [1]: < 100 nM

Cc1ccc(OC[C@@H]2CCN2C)cc1C(=O)NC1(c2cccc3nc(N(C)C)ccc23)CC1 [Compound 548, (S)-N-(1-(2-(Dimethylamino)quinolin-5-yl)cyclopropyl)-2-methyl-5-((1-methylazetidin-2-yl)methoxy)benzamide]
IC50 [1]: < 100 nM

CC(c1cccc2ncccc12)N1CCC(C(=O)NCc2cccc(F)c2)CC1 (stereo not shown) [Compound 549, N-(3-Fluorobenzyl)-1-(1-(quinolin-5-yl)ethyl)piperidine-4-carboxamide]
IC50 [1]: > 5000 nM

COc1cc(C2(NC(=O)c3cc(OC[C@@H]4CCCCN4)ccc3C)CC2)c2cccnc2c1 [Compound 550, (S)-N-(1-(7-Methoxyquinolin-5-yl)cyclopropyl)-2-methyl-5-(piperidin-2-ylmethoxy)benzamide]
IC50 [1]: < 100 nM

Cc1ccc(OC[C@@H]2CCN2C)cc1C(=O)NC1(c2cc(-c3cccs3)cc3ncccc23)CC1 [Compound 551, (S)-2-Methyl-5-((1-methylazetidin-2-yl)methoxy)-N-(1-(7-(thiophen-2-yl)quinolin-5-yl)cyclopropyl)benzamide]
IC50 [1]: < 100 nM

CC(C)c1ccccc1C(C)N1CCC(C(=O)NCc2cccc(F)c2)CC1 (stereo not shown) [Compound 552, N-(3-Fluorobenzyl)-1-(1-(2-isopropylphenyl)ethyl)piperidine-4-carboxamide]
IC50 [2]: > 5000 nM

COc1cc(C2(NC(=O)c3cc(OC[C@@H]4CCCCN4C)ccc3C)CC2)c2cccnc2c1 [Compound 553, (S)-N-(1-(7-Methoxyquinolin-5-yl)cyclopropyl)-2-methyl-5-((1-methylpiperidin-2-yl)methoxy)benzamide]
IC50 [2]: < 100 nM

COc1cc(C2(NC(=O)c3cc(OC[C@H]4CCN4)ccc3C)CC2)c2cccnc2c1 [Compound 554, (R)-5-(Azetidin-2-ylmethoxy)-N-(1-(7-methoxyquinolin-5-yl)cyclopropyl)-2-methylbenzamide]
IC50 [2]: < 100 nM

COc1cc(C2(NC(=O)c3cc(OC[C@@H]4CCN4C)ccc3C)CC2)c2ccccc2n1 [Compound 555, (S)-N-(1-(2-Methoxyquinolin-4-yl)cyclopropyl)-2-methyl-5-((1-methylazetidin-2-yl)methoxy)benzamide]
IC50 [1]: < 100 nM

COc1cc(C2(NC(=O)c3cc(OC[C@H]4C[C@H](F)CN4)ccc3C)CC2)c2cccnc2c1 [Compound 556, 5-(((2R,4S)-4-Fluoropyrrolidin-2-yl)methoxy)-N-(1-(7-methoxyquinolin-5-yl)cyclopropyl)-2-methylbenzamide]
IC50 [2]: < 100 nM

COc1cc(C2(NC(=O)c3cc(OC[C@H]4C[C@H](F)CN4C)ccc3C)CC2)c2cccnc2c1 [Compound 557, 5-(((2R,4S)-4-Fluoro-1-methylpyrrolidin-2-yl)methoxy)-N-(1-(7-methoxyquinolin-5-yl)cyclopropyl)-2-methylbenzamide]
IC50 [2]: < 100 nM

COc1cc(C2(NC(=O)c3cc(OC[C@H]4CCN4C)ccc3C)CC2)c2cccnc2c1 [Compound 558, (R)-N-(1-(7-Methoxyquinolin-5-yl)cyclopropyl)-2-methyl-5-((1-methylazetidin-2-yl)methoxy)benzamide]
IC50 [2]: < 100 nM

COc1cc(C2(NC(=O)c3cc(OCC45CCCN4CCC5)ccc3C)CC2)c2cccnc2c1 [Compound 559, 5-((Hexahydro-1H-pyrrolizin-7a-yl)methoxy)-N-(1-(7-methoxyquinolin-5-yl)cyclopropyl)-2-methylbenzamide]
IC50 [2]: < 100 nM

CN[C@@H](C)COc1ccc(C)c(C(=O)NC2(c3cc(OC)cc4ncccc34)CC2)c1 [Compound 560, (S)-N-(1-(7-Methoxyquinolin-5-yl)cyclopropyl)-2-methyl-5-(2-(methylamino)propoxy)benzamide]
IC50 [1]: < 100 nM

COc1ccnc(COc2ccc(C)c(C(=O)NC3(c4cc(OC)cc5ncccc45)CC3)c2)c1 [Compound 561, 5-((4-Methoxypyridin-2-yl)methoxy)-N-(1-(7-methoxyquinolin-5-yl)cyclopropyl)-2-methylbenzamide]
IC50 [1]: 100 to 1000 nM

COc1cc(C2(NC(=O)c3cc(OCc4ccccn4)ccc3C)CC2)c2cccnc2c1 [Compound 562, N-(1-(7-Methoxyquinolin-5-yl)cyclopropyl)-2-methyl-5-(pyridin-2-ylmethoxy)benzamide]
IC50 [2]: 100 to 1000 nM

Cc1ccc(OC[C@@H]2CCN2C)cc1C(=O)NC1(c2cc(Br)cc3ncccc23)CC1 [Compound 563, (S)-N-(1-(7-Bromoquinolin-5-yl)cyclopropyl)-2-methyl-5-((1-methylazetidin-2-yl)methoxy)benzamide]
IC50 [1]: < 100 nM

Cc1ccc(OC[C@@H]2CCN2C)cc1C(=O)NC1(c2cc(O)nc3ccccc23)CC1 [Compound 565, (S)-N-(1-(2-Hydroxyquinolin-4-yl)cyclopropyl)-2-methyl-5-((1-methylazetidin-2-yl)methoxy)benzamide]
IC50 [1]: < 100 nM
